11 compounds from US20190330275A1 (priority 2016, published 2019) can be followed below.

The target of assay [1] is rat α3β4 nAChR (Rattus norvegicus, UniProt P04757+P12392). Kind of assay: cell-based. The note with it: for IC50: α3β4 IC50 (half-blocking dose).
In assay [2] the target is rat α6/α3β4 nAChR (Rattus norvegicus, UniProt P04757+P12392+P43143). Kind of assay: cell-based.
[3] abbreviates: α6/α3β4 IC50 (half-blocking dose).

Molecules are shown by their SMILES. Peptide text beside a SMILES is read from it.

Sequence of rat α6/α3β4 nAChR (P04757 whole entry, looked up): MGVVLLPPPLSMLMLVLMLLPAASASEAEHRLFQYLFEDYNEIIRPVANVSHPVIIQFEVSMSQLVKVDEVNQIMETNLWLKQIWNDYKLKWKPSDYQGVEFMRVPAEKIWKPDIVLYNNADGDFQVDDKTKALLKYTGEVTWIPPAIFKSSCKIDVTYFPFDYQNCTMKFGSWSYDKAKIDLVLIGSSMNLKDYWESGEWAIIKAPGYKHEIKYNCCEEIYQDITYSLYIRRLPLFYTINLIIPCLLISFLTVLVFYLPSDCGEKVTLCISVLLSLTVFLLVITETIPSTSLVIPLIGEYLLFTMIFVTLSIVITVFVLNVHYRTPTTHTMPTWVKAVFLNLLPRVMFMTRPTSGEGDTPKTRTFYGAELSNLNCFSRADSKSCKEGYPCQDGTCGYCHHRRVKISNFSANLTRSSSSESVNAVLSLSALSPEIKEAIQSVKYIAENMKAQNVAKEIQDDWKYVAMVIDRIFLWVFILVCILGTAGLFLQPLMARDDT
Sequence of rat α6/α3β4 nAChR (P12392 whole entry, looked up): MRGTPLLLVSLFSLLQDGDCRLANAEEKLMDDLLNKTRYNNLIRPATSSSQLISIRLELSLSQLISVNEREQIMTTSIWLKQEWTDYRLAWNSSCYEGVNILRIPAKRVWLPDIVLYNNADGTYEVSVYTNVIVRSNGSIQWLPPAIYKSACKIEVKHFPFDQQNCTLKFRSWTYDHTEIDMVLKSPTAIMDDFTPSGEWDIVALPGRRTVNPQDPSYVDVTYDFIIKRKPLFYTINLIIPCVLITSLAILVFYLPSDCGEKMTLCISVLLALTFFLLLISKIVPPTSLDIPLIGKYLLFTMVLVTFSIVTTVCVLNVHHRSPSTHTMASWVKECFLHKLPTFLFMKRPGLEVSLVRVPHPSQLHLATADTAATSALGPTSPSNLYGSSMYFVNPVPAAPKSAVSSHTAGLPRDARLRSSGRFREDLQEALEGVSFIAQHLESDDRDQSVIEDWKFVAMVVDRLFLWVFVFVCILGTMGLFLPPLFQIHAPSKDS
Sequence of rat α6/α3β4 nAChR (P43143 whole entry, looked up): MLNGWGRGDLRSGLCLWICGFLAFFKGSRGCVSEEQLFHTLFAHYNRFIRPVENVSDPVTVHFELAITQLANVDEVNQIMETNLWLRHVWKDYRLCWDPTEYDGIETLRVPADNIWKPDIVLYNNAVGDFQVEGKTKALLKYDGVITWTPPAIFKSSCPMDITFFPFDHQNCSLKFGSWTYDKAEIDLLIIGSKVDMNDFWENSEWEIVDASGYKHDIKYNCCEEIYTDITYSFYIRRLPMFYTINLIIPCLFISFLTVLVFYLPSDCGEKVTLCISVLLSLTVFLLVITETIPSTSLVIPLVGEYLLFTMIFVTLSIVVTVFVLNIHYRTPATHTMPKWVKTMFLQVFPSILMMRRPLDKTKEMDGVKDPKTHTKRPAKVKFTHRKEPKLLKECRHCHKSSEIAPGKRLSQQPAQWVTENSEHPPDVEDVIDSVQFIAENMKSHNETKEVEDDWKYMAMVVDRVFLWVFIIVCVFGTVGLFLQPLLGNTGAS
Sequence of rat α3β4 nAChR (P04757 26-499 limits assumed): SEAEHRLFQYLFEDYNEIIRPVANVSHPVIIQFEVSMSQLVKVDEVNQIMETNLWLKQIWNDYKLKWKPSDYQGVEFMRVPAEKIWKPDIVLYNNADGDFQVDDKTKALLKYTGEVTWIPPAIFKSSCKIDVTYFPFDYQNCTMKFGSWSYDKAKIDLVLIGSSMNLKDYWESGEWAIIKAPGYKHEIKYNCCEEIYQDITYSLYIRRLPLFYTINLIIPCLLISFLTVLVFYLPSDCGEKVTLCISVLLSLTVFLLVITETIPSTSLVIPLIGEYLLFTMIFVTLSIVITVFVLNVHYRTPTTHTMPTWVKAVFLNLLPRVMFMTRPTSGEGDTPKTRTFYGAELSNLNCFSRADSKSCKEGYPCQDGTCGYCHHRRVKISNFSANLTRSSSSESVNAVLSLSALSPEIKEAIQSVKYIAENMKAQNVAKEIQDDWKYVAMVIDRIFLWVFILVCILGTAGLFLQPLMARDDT
Sequence of rat α3β4 nAChR (P12392 21-495 limits assumed): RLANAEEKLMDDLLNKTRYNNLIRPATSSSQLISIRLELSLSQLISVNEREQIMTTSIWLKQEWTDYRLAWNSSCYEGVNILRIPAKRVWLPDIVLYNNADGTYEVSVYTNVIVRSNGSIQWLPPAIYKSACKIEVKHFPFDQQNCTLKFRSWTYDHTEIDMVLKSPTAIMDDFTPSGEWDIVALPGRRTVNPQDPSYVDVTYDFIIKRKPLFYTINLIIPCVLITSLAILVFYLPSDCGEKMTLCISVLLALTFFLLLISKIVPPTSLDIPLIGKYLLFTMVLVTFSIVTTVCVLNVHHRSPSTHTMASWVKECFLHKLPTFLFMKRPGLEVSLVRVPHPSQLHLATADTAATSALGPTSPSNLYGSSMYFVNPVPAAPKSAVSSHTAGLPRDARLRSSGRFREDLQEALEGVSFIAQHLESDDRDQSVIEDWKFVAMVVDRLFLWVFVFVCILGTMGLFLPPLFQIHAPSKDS

`CC[C@@H]1NC(=O)[C@@H]2CSSC[C@H](NC(=O)CN)C(=O)N[C@@H](CSSC[C@@H](C(N)=O)NC(=O)[C@H]([C@@H](C)CC)NC(=O)[C@@H]3CCCN3C(=O)[C@H](CO)NC(=O)[C@H](CCSC)NC(=O)[C@H](C)NC1=O)C(=O)N[C@@H](CO)C(=O)N[C@@H](Cc1c[nH]cn1)C(=O)N1CCC[C@H]1C(=O)N[C@@H](C(C)C)C(=O)N2` [TxID[S9Abu], GCCSHPVCBAMSPIC*] (HELM PEPTIDE1{G.C.C.S.H.P.V.C.[Abu].A.M.S.P.I.C.[am]}$PEPTIDE1,PEPTIDE1,2:R3-8:R3|PEPTIDE1,PEPTIDE1,3:R3-15:R3$$$V2.0): in assay [1], the “binding (blocking) activity to α3β4 nAChR compared with wild type TxID” value is “not significantly different from the activity of the wild type TxID” and the “elution after blocking the α3β4 nAChR current” value was “very slow”. Also, the “binding (blocking) activity to α6/α3β4 nAChR compared with wild type TxID” value in assay [2] is “not significantly different from the activity of the wild type TxID”.
Take `CC[C@H](C)[C@@H]1NC(=O)[C@@H]2CCCN2C(=O)[C@H](CO)NC(=O)[C@H](CCSC)NC(=O)[C@H](C)NC(=O)[C@H](CCCCN)NC(=O)[C@@H]2CSSC[C@H](NC(=O)CN)C(=O)N[C@@H](CSSC[C@@H](C(N)=O)NC1=O)C(=O)N[C@@H](CO)C(=O)N[C@@H](Cc1c[nH]cn1)C(=O)N1CCC[C@H]1C(=O)N[C@@H](C(C)C)C(=O)N2` [TxID[S9K]] (HELM PEPTIDE1{G.C.C.S.H.P.V.C.K.A.M.S.P.I.C.[am]}$PEPTIDE1,PEPTIDE1,2:R3-8:R3|PEPTIDE1,PEPTIDE1,3:R3-15:R3$$$V2.0): in assay [1], the “blocking of rat α3β4 nAChRs current” value is listed as “completely blocked”. Also, in assay [2], the “blocking effect on the current of rat α6/α3β4 nAChRs” value is listed as “no blocking effect”, the “blocking of α6/α3β4 nAChR current as part of the control current” value is given as “less than ¼” and the current blockade result is “less than 50%”.
As for `CC[C@H](C)[C@@H]1NC(=O)[C@@H]2CCCN2C(=O)[C@H](CO)NC(=O)[C@H](CCSC)NC(=O)[C@H](C)NC(=O)[C@H](Cc2ccc(O)cc2)NC(=O)[C@@H]2CSSC[C@H](NC(=O)CN)C(=O)N[C@@H](CSSC[C@@H](C(N)=O)NC1=O)C(=O)N[C@@H](CO)C(=O)N[C@@H](Cc1c[nH]cn1)C(=O)N1CCC[C@H]1C(=O)N[C@@H](C(C)C)C(=O)N2` [TxID[S9Y]] (HELM PEPTIDE1{G.C.C.S.H.P.V.C.Y.A.M.S.P.I.C.[am]}$PEPTIDE1,PEPTIDE1,2:R3-8:R3|PEPTIDE1,PEPTIDE1,3:R3-15:R3$$$V2.0), in assay [1], the “binding (blocking) activity to α3β4 nAChR compared with wild type TxID” value was “not significantly different from the activity of the wild type TxID”, the “blocking of rat α3β4 nAChRs current” value is “strong blocking activities”, the “current after 2 min of elution” value is roughly 0 nA and the “elution after blocking the α3β4 nAChR current” value is listed as “very slow”. Besides, the “binding (blocking) activity to α6/α3β4 nAChR compared with wild type TxID” value in assay [2] was “not significantly different from the activity of the wild type TxID”.
For the compound `CC[C@H](C)[C@@H]1NC(=O)[C@@H]2CCCN2C(=O)[C@H](CO)NC(=O)[C@H](CCSC)NC(=O)[C@H](C)NC(=O)[C@H](CC(C)C)NC(=O)[C@@H]2CSSC[C@H](NC(=O)CN)C(=O)N[C@@H](CSSC[C@@H](C(N)=O)NC1=O)C(=O)N[C@@H](CO)C(=O)N[C@@H](Cc1c[nH]cn1)C(=O)N1CCC[C@H]1C(=O)N[C@@H](C(C)C)C(=O)N2` [TxID[S9L]] (HELM PEPTIDE1{G.C.C.S.H.P.V.C.L.A.M.S.P.I.C.[am]}$PEPTIDE1,PEPTIDE1,2:R3-8:R3|PEPTIDE1,PEPTIDE1,3:R3-15:R3$$$V2.0), in assay [1], the “binding (blocking) activity to α3β4 nAChR compared with wild type TxID” value is on record as “not significantly different from the activity of the wild type TxID”, the “blocking of rat α3β4 nAChRs current” value is “strong blocking activities”, the “current after 2 min of elution” value was roughly 0 nA and the “elution after blocking the α3β4 nAChR current” value is “very slow”. Further, the “binding (blocking) activity to α6/α3β4 nAChR compared with wild type TxID” value in assay [2] was “not significantly different from the activity of the wild type TxID”.
On to `CSCC[C@@H]1NC(=O)[C@H](C)NC(=O)[C@H](CO)NC(=O)[C@@H]2CSSC[C@H](NC(=O)CN)C(=O)N[C@@H](CSSC[C@@H](C(N)=O)NC(=O)[C@H](CC(=O)O)NC(=O)[C@@H]3CCCN3C(=O)[C@H](CO)NC1=O)C(=O)N[C@@H](CO)C(=O)N[C@@H](Cc1c[nH]cn1)C(=O)N1CCC[C@H]1C(=O)N[C@@H](C(C)C)C(=O)N2` [TxID[I14D]] (HELM PEPTIDE1{G.C.C.S.H.P.V.C.S.A.M.S.P.D.C.[am]}$PEPTIDE1,PEPTIDE1,2:R3-8:R3|PEPTIDE1,PEPTIDE1,3:R3-15:R3$$$V2.0), for which, in assay [1], the “α3β4 IC50 ratio” value stood at 2.7 and the IC50 is 0.0098 µM. Also, in assay [2], the “IC50 ratio of α6/α3β4 vs. α3β4 (Discrimination)” value (“IC50 ratio of α6/α3β4 vs. α3β4” below) was 4.2 and the “α6/α3β4 IC50 ratio” value is 1.2. The IC50 in assay [2] (setting [3]) was found to be 0.0408 µM.
As for `CSCC[C@@H]1NC(=O)[C@H](C)NC(=O)[C@H](CO)NC(=O)[C@@H]2CSSC[C@H](NC(=O)CN)C(=O)N[C@@H](CSSC[C@@H](C(N)=O)NC(=O)[C@H](Cc3ccc(O)cc3)NC(=O)[C@@H]3CCCN3C(=O)[C@H](CO)NC1=O)C(=O)N[C@@H](CO)C(=O)N[C@@H](Cc1c[nH]cn1)C(=O)N1CCC[C@H]1C(=O)N[C@@H](C(C)C)C(=O)N2` [TxID[I14Y]] (HELM PEPTIDE1{G.C.C.S.H.P.V.C.S.A.M.S.P.Y.C.[am]}$PEPTIDE1,PEPTIDE1,2:R3-8:R3|PEPTIDE1,PEPTIDE1,3:R3-15:R3$$$V2.0), in assay [1], the “α3β4 IC50 ratio” value is reported as 2.7 and the IC50 amounted to 0.01 µM. Besides, in assay [2], the “IC50 ratio of α6/α3β4 vs. α3β4” value is listed as 3.9 and the “α6/α3β4 IC50 ratio” value was determined as 1.1. Besides, half-maximal inhibition in assay [2] (setting [3]) (IC50) was put at 0.0387 µM.
As to `CC[C@H](C)[C@@H]1NC(=O)[C@@H]2CCCN2C(=O)[C@H](CO)NC(=O)[C@H](Cc2c[nH]cn2)NC(=O)[C@H](C)NC(=O)[C@H](CO)NC(=O)[C@@H]2CSSC[C@H](NC(=O)CN)C(=O)N[C@@H](CSSC[C@@H](C(N)=O)NC1=O)C(=O)N[C@@H](CO)C(=O)N[C@@H](Cc1c[nH]cn1)C(=O)N1CCC[C@H]1C(=O)N[C@@H](C(C)C)C(=O)N2` [TxID[M11H]] (HELM PEPTIDE1{G.C.C.S.H.P.V.C.S.A.H.S.P.I.C.[am]}$PEPTIDE1,PEPTIDE1,2:R3-8:R3|PEPTIDE1,PEPTIDE1,3:R3-15:R3$$$V2.0), the “blocking effect on the current of rat α3β4 nAChRs” value in assay [1] is “no blocking effects”. Also, the results for the IC50 in assay [1], in assay [2] (α6/α3β4 IC50) and in assay [2] (setting [3]) were greater than 10 µM, 1 to 10 µM and 3.49 µM, respectively. Besides, the “α6/α3β4 IC50 ratio” value in assay [2] is 103.
Consider `CC[C@H](C)[C@@H]1NC(=O)[C@@H]2CCCN2C(=O)[C@H](CO)NC(=O)[C@H](CCSC)NC(=O)[C@H](C)NC(=O)[C@H](Cc2c[nH]cn2)NC(=O)[C@@H]2CSSC[C@H](NC(=O)CN)C(=O)N[C@@H](CSSC[C@@H](C(N)=O)NC1=O)C(=O)N[C@@H](CO)C(=O)N[C@@H](Cc1c[nH]cn1)C(=O)N1CCC[C@H]1C(=O)N[C@@H](C(C)C)C(=O)N2` [TxID[S9H]] (HELM PEPTIDE1{G.C.C.S.H.P.V.C.H.A.M.S.P.I.C.[am]}$PEPTIDE1,PEPTIDE1,2:R3-8:R3|PEPTIDE1,PEPTIDE1,3:R3-15:R3$$$V2.0), for which, in assay [1], the “binding (blocking) activity to α3β4 nAChR compared with wild type TxID” value is “not significantly different from the activity of the wild type TxID”, the “blocking of rat α3β4 nAChRs current” value is given as “strong blocking activities”, the “current after 2 min of elution” value is given as roughly 0 nA and the “elution after blocking the α3β4 nAChR current” value is given as “very slow”. The “α3β4 IC50 ratio” value in assay [1] is listed as 0.7. Moreover, in assay [2], the “IC50 ratio of α6/α3β4 vs. α3β4” value was found to be 5.6, the “binding (blocking) activity to α6/α3β4 nAChR compared with wild type TxID” value is given as “not significantly different from the activity of the wild type TxID” and the “α6/α3β4 IC50 ratio” value stood at 0.4.
Take `CC[C@H](C)[C@@H]1NC(=O)[C@@H]2CCCN2C(=O)[C@H](CO)NC(=O)[C@H](CCSC)NC(=O)[C@H](C)NC(=O)[C@H](CO)NC(=O)[C@@H]2CSSC[C@H](NC(=O)CN)C(=O)N[C@@H](CSSC[C@@H](C(N)=O)NC1=O)C(=O)N[C@@H](CO)C(=O)N[C@@H](C)C(=O)N1CCC[C@H]1C(=O)N[C@@H](C(C)C)C(=O)N2` [TxID[H5A]] (HELM PEPTIDE1{G.C.C.S.A.P.V.C.S.A.M.S.P.I.C.[am]}$PEPTIDE1,PEPTIDE1,2:R3-8:R3|PEPTIDE1,PEPTIDE1,3:R3-15:R3$$$V2.0): the IC50 in assay [1] and in assay [2] (setting [3]) was greater than 10 µM in each case.
As for `CC[C@H](C)[C@@H]1NC(=O)[C@@H]2CCCN2C(=O)[C@H](CO)NC(=O)[C@H](CCSC)NC(=O)[C@H](C)NC(=O)[C@H](CO)NC(=O)[C@H](CCCNC(=N)N)NC(=O)[C@@H]2CSSC[C@H](NC(=O)CN)C(=O)N[C@@H](CSSC[C@@H](C(N)=O)NC1=O)C(=O)N[C@@H](CO)C(=O)N[C@@H](Cc1c[nH]cn1)C(=O)N1CCC[C@H]1C(=O)N[C@@H](C(C)C)C(=O)N2` [TxID[9R]] (HELM PEPTIDE1{G.C.C.S.H.P.V.C.R.S.A.M.S.P.I.C.[am]}$PEPTIDE1,PEPTIDE1,2:R3-8:R3|PEPTIDE1,PEPTIDE1,3:R3-16:R3$$$V2.0), the IC50 in assay [1] and in assay [2] (setting [3]) was greater than 10 µM throughout.
Take `CC[C@H](C)[C@@H]1NC(=O)[C@H](CC(=O)O)NC(=O)[C@@H]2CCCN2C(=O)[C@H](CO)NC(=O)[C@H](CCSC)NC(=O)[C@H](C)NC(=O)[C@H](CO)NC(=O)[C@@H]2CSSC[C@H](NC(=O)CN)C(=O)N[C@@H](CSSC[C@@H](C(N)=O)NC1=O)C(=O)N[C@@H](CO)C(=O)N[C@@H](Cc1c[nH]cn1)C(=O)N1CCC[C@H]1C(=O)N[C@@H](C(C)C)C(=O)N2` [TxID[14D]] (HELM PEPTIDE1{G.C.C.S.H.P.V.C.S.A.M.S.P.D.I.C.[am]}$PEPTIDE1,PEPTIDE1,2:R3-8:R3|PEPTIDE1,PEPTIDE1,3:R3-16:R3$$$V2.0): in assay [1], the “α3β4 IC50 ratio” value stood at 14.1 and the IC50 was 0.0506 µM. In assay [2], the “IC50 ratio of α6/α3β4 vs. α3β4” value came out at 44.7 and the “α6/α3β4 IC50 ratio” value worked out at 66.6. Also, the IC50 in assay [2] (α6/α3β4 IC50) was 1 to 10 µM. This compound also showed an IC50 in assay [2] (setting [3]) of 2.26 µM.
